Experimental data reported in paper PMC11720140, “Evaluation of the Anti-Amyloid and Anti-Inflammatory Properties of a Novel Vanadium(IV)–Curcumin Complex in Lipopolysaccharides-Stimulated Primary Rat Neuron-Microglia Mixed Cultures” (International Journal of Molecular Sciences, 2024).

Molecular target: T1, human insulin (HI) (Homo sapiens, UniProt P01308)
T1 construct: gene INS; HI (Actrapid)
Assay: Thioflavin-T fibrillation assay with insulin ([…] HCl, pH […] °C, […] h)
Format: biochemical

T1 sequence (P01308 25-54): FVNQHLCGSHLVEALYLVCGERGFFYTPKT
T1 sequence (P01308 90-110): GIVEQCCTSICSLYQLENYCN

COc1cc(/C=C/C(=O)CC(=O)/C=C/c2ccc(O)c(OC)c2)ccc1O [Curcumin]
EC50: 44.1 µM
